Source: article PMC4106271 (Journal of Medicinal Chemistry, 2014)

Target: T1, α1β2γ2S GABAA receptors (Homo sapiens, UniProt P14867+P47870)
T1 construct: expressed in transfected cells; host or cells: Xenopus laevis oocytes injected with cRNA (pCMV cDNA templates)
T1 sequence (P14867 28-456): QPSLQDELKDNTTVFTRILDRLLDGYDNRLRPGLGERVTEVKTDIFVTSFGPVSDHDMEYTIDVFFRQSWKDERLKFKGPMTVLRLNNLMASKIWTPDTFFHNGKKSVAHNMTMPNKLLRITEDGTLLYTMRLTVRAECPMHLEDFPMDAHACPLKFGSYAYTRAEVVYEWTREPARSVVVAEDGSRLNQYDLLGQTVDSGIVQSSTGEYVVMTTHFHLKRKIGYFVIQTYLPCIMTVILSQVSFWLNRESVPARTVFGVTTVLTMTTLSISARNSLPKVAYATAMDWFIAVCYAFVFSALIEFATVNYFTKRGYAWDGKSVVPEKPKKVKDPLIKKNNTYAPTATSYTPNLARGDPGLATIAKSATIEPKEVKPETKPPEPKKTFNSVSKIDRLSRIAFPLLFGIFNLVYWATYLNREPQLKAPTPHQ
T1 sequence (P47870 26-512): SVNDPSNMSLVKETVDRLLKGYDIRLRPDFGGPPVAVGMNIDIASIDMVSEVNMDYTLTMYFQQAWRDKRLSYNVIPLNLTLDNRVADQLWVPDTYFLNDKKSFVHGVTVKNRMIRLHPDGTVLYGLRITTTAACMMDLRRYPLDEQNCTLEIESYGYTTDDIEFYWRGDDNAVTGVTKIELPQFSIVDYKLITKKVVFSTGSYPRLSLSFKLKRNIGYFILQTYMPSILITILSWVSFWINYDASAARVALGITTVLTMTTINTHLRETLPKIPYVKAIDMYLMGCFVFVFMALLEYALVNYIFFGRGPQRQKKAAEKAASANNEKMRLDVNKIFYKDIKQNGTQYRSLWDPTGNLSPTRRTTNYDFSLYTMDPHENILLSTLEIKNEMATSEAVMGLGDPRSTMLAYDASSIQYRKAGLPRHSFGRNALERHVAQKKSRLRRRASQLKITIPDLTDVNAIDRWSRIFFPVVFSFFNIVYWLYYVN
T1 sequence (P18507 40-467 isoform P18507-1 partner limits assumed): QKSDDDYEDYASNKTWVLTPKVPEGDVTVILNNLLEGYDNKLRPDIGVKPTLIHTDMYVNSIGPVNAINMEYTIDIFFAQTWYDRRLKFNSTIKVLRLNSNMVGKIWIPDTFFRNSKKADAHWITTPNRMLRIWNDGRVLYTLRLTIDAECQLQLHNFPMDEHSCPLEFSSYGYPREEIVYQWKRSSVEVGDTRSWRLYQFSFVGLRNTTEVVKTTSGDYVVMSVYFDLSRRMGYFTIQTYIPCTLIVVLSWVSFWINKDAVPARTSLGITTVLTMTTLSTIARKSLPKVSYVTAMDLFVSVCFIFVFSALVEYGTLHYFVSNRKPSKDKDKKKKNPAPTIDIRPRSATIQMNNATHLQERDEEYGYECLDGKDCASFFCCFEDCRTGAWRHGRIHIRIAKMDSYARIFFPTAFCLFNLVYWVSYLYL
Assay: Two-microelectrode voltage clamp, IGABA modulation, α1β2γ2S
Format: cell-based
Conditions: 100 μM compound, GABA EC3–7, Xenopus laevis oocytes, mean ± SEM
Protocol: Preparation of stage V–VI oocytes from X. laevis and synthesis of capped runoff poly(A) cRNA transcripts from linearized cDNA templates (pCMV vector) was performed as previously described.[49] […] Follicle membranes from isolated oocytes were enzymatically digested with 2 mg/mL collagenase (type 1A, Sigma–Aldrich, Vienna, Austria).
Selected oocytes were injected with 10–50 nL of DEPC-treated water (diethyl pyrocarbonate, Sigma, Vienna, Austria) containing the different GABAA cRNAs at a concentration of approximately 300–3000 pg·nL^–1·subunit^–1.
To ensure expression of the γ2S subunit in the case of α1/2/3/5β2/3γ2S receptors, cRNAs were mixed in a ratio of 1:1:10. […] The amount of cRNAs was determined by means of a NanoDrop ND-1000 (Kisker-Biotech, Steinfurt, Germany).
Oocytes were stored at +18 °C in modified ND96 solution (90 mM NaCl, 1 mM CaCl2, 1 mM KCl, 1 mM MgCl2·6H2O, and 5 mM HEPES [4-(2-hydroxyethyl)-1-piperazineethanesulfonic acid], pH 7.4, all from Sigma–Aldrich, Vienna, Austria).
Chloride currents through GABAA receptors (IGABA) were measured at room temperature (+21 ± 1 °C) by means of a two-microelectrode voltage clamp technique making use of a Turbo TEC-05X amplifier (npi electronic, Tamm, Germany). IGABA were elicited at a holding potential of –70 mV. Data acquisition was carried out by means of an Axon Digidata 1322A interface using pCLAMP v.10 (Molecular Devices, Sunnyvale, CA). The modified ND96 solution was used as bath solution.
GABA and the studied derivatives were applied by means of the ScreeningTool (npi electronic, Tamm, Germany) fast perfusion system as described previously.[50] To elicit IGABA, the chamber was perfused with 120 μL of GABA- or compound-containing solution at a volume rate of 300 μL/s.[34] Care was taken to account for possible slow recovery from increasing levels of desensitization in the presence of high drug concentrations. The duration of washout periods was therefore extended from 1.5 min (<10 μM compounds) to 30 min (≥10 μM compounds). Oocytes with maximal current amplitudes >3 μA were discarded to exclude voltage clamp errors.
Stimulation of chloride currents by modulators of the GABAA receptor was measured at a GABA concentration eliciting between 3% and 7% of the maximal current amplitude (EC3–7). The GABA EC3–7 was determined for each oocyte individually. Enhancement of the chloride current was defined as (IGABA+compd/IGABA) – 1, where IGABA+compd is the current response in the presence of a given compound and IGABA is the control GABA current. IGABA-max reflects the maximal IGABA enhancement. Concentration–response curves were generated and the data were fitted by nonlinear regression analysis using Origin Software (OriginLab Corp.). Data were fitted to the equation 1/(1 + (EC50/[compound])^nH), where nH is the Hill coefficient. […] Statistical significance was calculated by paired Student t-test with a confidence interval of <0.05.
Molecule O=C(/C=C/C=C/c1ccc2c(c1)OCO2)NCc1ccccc1 [Compound 14] has an activation at 100 µM of 0%. CCCCN(CCCC)C(=O)c1cccc(-c2ccc3c(c2)OCO3)c1 [Compound 52] showed an activation at 100 µM of 63 ± 12%. In the case of COc1ccc(CCNC(=O)/C=C/C=C/c2ccc3c(c2)OCO3)cc1OC [Compound 5], the activation at 100 µM is reported as -2%. CCN1CCN(C(=O)/C=C/C=C/c2ccc3c(c2)OCO3)CC1 [Compound 32] gave an activation at 100 µM of -5%. Work on CCCCCCN(CCCCCC)C(=O)/C=C/C=C/c1ccc2c(c1)OCO2 [Compound 26] yielded an activation at 100 µM of 0%. Molecule O=C(/C=C/C=C/c1ccc2c(c1)OCO2)N1CCN(Cc2ccccc2)CC1 [Compound 42] has an activation at 100 µM of 48 ± 12%. CCCN(CCC)C(=O)/C=C/c1ccc2cc3c(cc2c1)OCO3 [Compound 69] showed an activation at 100 µM of 74 ± 1%. In the case of O=C(/C=C/c1ccc2c(c1)OCO2)N1CCCCC1 [Compound 17], the activation at 100 µM is reported as 79 ± 8%. In the case of O=C(/C=C/C=C/c1ccc2c(c1)OCO2)NC12CC3CC(CC(C3)C1)C2 [Compound 16], the activation at 100 µM is reported as -6%. CCCCN(CCCC)C(=O)/C=C/c1cccc2cc3c(cc12)OCO3 [Compound 67] showed an activation at 100 µM of 18 ± 9%. In the case of CC(C)N(C(=O)c1ccccc1-c1ccc2c(c1)OCO2)C(C)C [Compound 57], the activation at 100 µM is reported as 15 ± 15%. For COc1cc(NC(=O)/C=C/C=C/c2ccc3c(c2)OCO3)cc(OC)c1OC [Compound 2], the activation at 100 µM was 10%. Work on CSc1ccc(NC(=O)/C=C/C=C/c2ccc3c(c2)OCO3)cc1 [Compound 1] yielded an activation at 100 µM of 0%. For O=C(c1ccccc1-c1ccc2c(c1)OCO2)N1CCCCC1 [Compound 54], the activation at 100 µM was 34 ± 8%. For CCCN(CCC)C(=O)c1ccccc1-c1ccc2c(c1)OCO2 [Compound 55], the activation at 100 µM was 79 ± 24%. In the case of O=C(/C=C/C=C/c1ccc2c(c1)OCO2)Nc1cccnc1 [Compound 6], the activation at 100 µM is reported as -7%. O=C(/C=C/C=C/c1ccc2c(c1)OCO2)NCCCc1ccccc1 [Compound 8] gave an activation at 100 µM of -8%. CCCN(CCC)C(=O)/C=C/c1cccc2cc3c(cc12)OCO3 [Compound 66] gave an activation at 100 µM of 67 ± 23%. With CC(C)N(C(=O)c1ccc(-c2ccc3c(c2)OCO3)s1)C(C)C [Compound 61] the activation at 100 µM was 11 ± 2%. Work on O=C(/C=C/C=C/c1ccc2c(c1)OCO2)NC1CCCC1 [Compound 13] yielded an activation at 100 µM of 33 ± 17%. With COc1ccccc1N1CCN(C(=O)/C=C/C=C/c2ccc3c(c2)OCO3)CC1 [Compound 41] the activation at 100 µM was 5 ± 5%. Work on CC(C)N(C(=O)/C=C/c1ccc2c(c1)OCO2)C(C)C [Compound 18] yielded an activation at 100 µM of 66 ± 30%. CN1CCN(C(=O)/C=C/C=C/c2ccc3c(c2)OCO3)CC1 [Compound 31] showed an activation at 100 µM of -20%. For O=C(c1cccc2cc3c(cc12)OCO3)N1CCCCC1 [Compound 71], the activation at 100 µM was 32 ± 10%. With CCCCN(CCCC)C(=O)c1cccc2c(-c3ccc4c(c3)OCO4)cccc12 [Compound 64] the activation at 100 µM was 4 ± 4%. For CCCCN(CCCC)C(=O)/C=C/c1ccc2cc3c(cc2c1)OCO3 [Compound 70], the activation at 100 µM was 32% and the “modulation of IGABA (%)” value was 32 ± 12%. For CCCN(CCC)C(=O)c1cccc(-c2ccc3c(c2)OCO3)c1 [Compound 51, 3-(Benzo[d][1,3]dioxol-5-yl)-N,N-dipropylbenzamide], the activation at 100 µM was 280% and the “modulation of IGABA (%)” value was 280 ± 52 %. In the case of O=C(/C=C/C=C/c1ccc2c(c1)OCO2)NCCC(c1ccccc1)c1ccccc1 [Compound 12], the activation at 100 µM is reported as -6%. Work on CCCCCCCCCCNC(=O)/C=C/C=C/c1ccc2c(c1)OCO2 [Compound 15] yielded an activation at 100 µM of -1%. CCCN(CCC)C(=O)c1cccc2c(-c3ccc4c(c3)OCO4)cccc12 [Compound 63] gave an activation at 100 µM of 12 ± 4%. In the case of O=C(/C=C/C=C/c1ccc2c(c1)OCO2)Nc1c(F)cc(F)cc1F [Compound 3], the activation at 100 µM is reported as 5 ± 5%. Molecule O=C(c1cccc2c(-c3ccc4c(c3)OCO4)cccc12)N1CCCCC1 [Compound 62, [5-(Benzo[d][1,3]dioxol-5-yl)naphthalen-1-yl](piperidin-1-yl)methanone] has an activation at 100 µM of 13 ± 2%. In the case of CCCCNC(=O)/C=C/C=C/c1ccc2c(c1)OCO2 [Compound 11], the activation at 100 µM is reported as 51 ± 11%. CC(C)CN(CC(C)C)C(=O)c1cccc2cc3c(cc12)OCO3 [Compound 74] showed an activation at 100 µM of 60 ± 17%. Work on O=C(/C=C/C=C/c1ccc2c(c1)OCO2)N1CCN(CCOCCO)CC1 [Compound 40] yielded an activation at 100 µM of 12 ± 8%. For O=C(/C=C/C=C/c1ccc2c(c1)OCO2)N(C1CCCCC1)C1CCCCC1 [Compound 27], the activation at 100 µM was 13 ± 13%. CCCCN(CCCC)C(=O)c1ccc(-c2ccc3c(c2)OCO3)s1 [Compound 60] gave an activation at 100 µM of 51 ± 21%. With CCCCN(CCCC)C(=O)c1ccc(-c2ccc3c(c2)OCO3)cc1 [Compound 48] the activation at 100 µM was 49 ± 7%. For O=C(/C=C/c1ccc2cc3c(cc2c1)OCO3)N1CCCCC1 [Compound 68], the activation at 100 µM was -1%. For O=C(c1ccc(-c2ccc3c(c2)OCO3)s1)N1CCCCC1 [Compound 58], the activation at 100 µM was -5%. CC(C)N(C(=O)c1ccc(-c2ccc3c(c2)OCO3)cc1)C(C)C [Compound 49] showed an activation at 100 µM of 30 ± 15%. O=C(/C=C/C=C/c1ccc2c(c1)OCO2)N1CCC(O)CC1 [Compound 37] showed an activation at 100 µM of 26 ± 14%. In the case of CN(C)CCNC(=O)/C=C/C=C/c1ccc2c(c1)OCO2 [Compound 4], the activation at 100 µM is reported as -15%. Work on O=C(/C=C/C=C/c1ccc2c(c1)OCO2)N1CCOCC1 [Compound 29] yielded an activation at 100 µM of 0%. O=C(/C=C/C=C/c1ccc2c(c1)OCO2)N1CCCC(O)C1 (centres unmarked) [Compound 36] gave an activation at 100 µM of 33 ± 9%. With O=C(/C=C/C=C/c1ccc2c(c1)OCO2)Nc1ccc(Cl)cn1 [Compound 7] the activation at 100 µM was 8 ± 7%. With O=C(/C=C/C=C/c1ccc2c(c1)OCO2)Nc1ccc([N+](=O)[O-])cc1O [Compound 10] the activation at 100 µM was 1 ± 7%. Molecule C(/C=C/c1ccc2c(c1)OCO2)=C\CN1CCCCC1 [Compound 45] has an activation at 100 µM of -16%. In the case of CN(C)C(=O)/C=C/C=C/c1ccc2c(c1)OCO2 [Compound 20], the activation at 100 µM is reported as 61 ± 28%. O=C(c1ccc2cc3c(cc2c1)OCO3)N1CCCCC1 [Compound 75] gave an activation at 100 µM of 58 ± 29%. Molecule O=C(/C=C/C=C/c1ccc2c(c1)OCO2)Nc1ccccc1O [Compound 9] has an activation at 100 µM of 0%. For O=C(c1ccc(-c2ccc3c(c2)OCO3)cc1)N1CCCCC1 [Compound 46], the activation at 100 µM was 42% and the “modulation of IGABA (%)” value was 42 ± 1 %. For S=C(/C=C/C=C/c1ccc2c(c1)OCO2)N1CCCCC1 [Compound 44], the activation at 100 µM was 17 ± 17%.

Same assay, conditions: Hill coefficient of concentration–response curve
With CCCN(CCC)C(=O)c1cccc2cc3c(cc12)OCO3 [Compound 72] the nH was 1.9 ± 0.2. Work on CC1CCN(C(=O)/C=C/C=C/c2ccc3c(c2)OCO3)CC1 [Compound 35] yielded a nH of 1.9 ± 0.3. With CCCN(CCC)C(=O)c1ccc(-c2ccc3c(c2)OCO3)cc1 [Compound 47] the nH was 1.2 ± 0.2. For CC(C)N(C(=O)c1cccc(-c2ccc3c(c2)OCO3)c1)C(C)C [Compound 53], the nH was 1.5 ± 0.2. With O=C(/C=C/C=C/c1ccc2c(c1)OCO2)N(CC(F)(F)F)CC(F)(F)F [Compound 43] the nH was 1.6 ± 0.2. Work on CC(C)N(C(=O)/C=C/C=C/c1ccc2c(c1)OCO2)C(C)C [Compound 22] yielded a nH of 2.3 ± 0.2. Work on CCCCN(CCCC)C(=O)c1cccc2cc3c(cc12)OCO3 [Compound 73] yielded a nH of 2.7 ± 0.2. In the case of CCCCN(CCCC)C(=O)c1ccccc1-c1ccc2c(c1)OCO2 [Compound 56], the nH is reported as 1.2 ± 0.0.

Same assay, conditions: IGABA enhancement, GABA EC3–7, Xenopus oocytes
CCCN(CCC)C(=O)c1cccc2cc3c(cc12)OCO3 [Compound 72] showed an EC50 of 102 ± 11.2 µM. Molecule CC1CCN(C(=O)/C=C/C=C/c2ccc3c(c2)OCO3)CC1 [Compound 35] has an EC50 of 67.7 ± 11 µM. In the case of CCCN(CCC)C(=O)c1ccc(-c2ccc3c(c2)OCO3)cc1 [Compound 47], the EC50 is reported as 70.8 ± 21.1 µM. CC(C)N(C(=O)c1cccc(-c2ccc3c(c2)OCO3)c1)C(C)C [Compound 53] showed an EC50 of 55.3 ± 17.6 µM. For O=C(/C=C/C=C/c1ccc2c(c1)OCO2)N(CC(F)(F)F)CC(F)(F)F [Compound 43], the EC50 was 23.1 ± 3.3 µM. Molecule CC(C)N(C(=O)/C=C/C=C/c1ccc2c(c1)OCO2)C(C)C [Compound 22] has an EC50 of 86.7 ± 13.9 µM. With CCCCN(CCCC)C(=O)c1cccc2cc3c(cc12)OCO3 [Compound 73] the EC50 was 31.8 ± 5.3 µM. For CCCCN(CCCC)C(=O)c1ccccc1-c1ccc2c(c1)OCO2 [Compound 56], the EC50 was 36.8 ± 2 µM.

Target: T1, α1β2γ2S GABAA receptors
Assay: not given
Conditions: 100 μM; cited from earlier work
For O=C(/C=C/C=C/c1ccc2c(c1)OCO2)N1CCCCC1 [piperine, 1-piperoylpiperidine], the “potentiation of IGABA” value is given as 226% ± 26%.

Same assay, conditions: Hill coefficient; cited from earlier work
For O=C(/C=C/C=C/c1ccc2c(c1)OCO2)N1CCCCC1 [piperine, 1-piperoylpiperidine], the nH is given as 1.5 ± 0.2.
